The subject of one data set is C. tropicalis ATCC 750. The data set can be described thus: Antifungal MIC assay (broth microdilution in YNB). It counts as cell-based, Candida tropicalis. Conditions: for MIC Candida tropicalis ATCC 750: Table S1; for MIC: read-out: MIC C. tropicalis ATCC 750. The text has this: (§1) Yeast strains: Candida albicans (ATCC 90028, NCCLS 11), Cryptococcus neoformans (ATCC 208821, H99 type strain), Candida tropicalis (ATCC 750, type strain), Candida glabrata (ATCC 90030, NCCLS 84) and Cryptococcus deuterogattii (ATCC 32609, type strain) were obtained from the American Type Culture Collection (ATCC). Cryptococcus deuterogattii (CBS 7750), Candida auris (CBS 10913) and Candida auris (CBS 12373) were obtained from the CBS‐KNAW culture collection. The strains were maintained on glycerol/YPD (yeast extract‐peptone dextrose) broth (20:80 v/v) at −80 °C.
(§2) Antifungal minimum inhibitory concentration (MIC) assay: The cobalt complexes and antifungal control compounds were serially diluted in 50 μL of Yeast Nitrogen Broth (YNB; BD, Cat No. 233520 supplemented with 2 % glucose and 10 mM ammonium sulfate) two‐fold across the wells of non‐binding surface (NBS) 96‐well plates (Corning; Cat. No. 3641). Plates were set up in quadruplicate for each strain tested, and two biological replicates were conducted on separate assay days.
(§3) Yeast strains were cultured from glycerol onto YPD (Becton Dickinson 242720) agar at 30 °C for 72 h. For each strain, a minimum of five single colonies were taken from the agar plate and dissolved in sterile water and adjusted to form a yeast suspension of 1×10^6 to 5×10^6 CFU mL^−1 (as determined by OD530). The suspension was subsequently diluted into YNB media, and added to each well of the compound containing plates, giving a final cell density of 2.5×10^3 CFU mL^−1 and a total volume of 100 μL. Plates were covered and incubated at 35 °C for 36 h without shaking.
(§4) Growth inhibition of all strains was determined visually where the MIC was recorded as the lowest compound concentration with no visible growth. Fluconazole (Sigma F8929), ketoconazole (Sigma K1003) and micafungin (Sigma SML2288) were used as internal positive inhibitor controls for every strain tested.

Data set [1] concerns C. deuterogattii CBS 7750. The data set can be described thus: Antifungal MIC assay (broth microdilution in YNB). The class given is cell-based, Cryptococcus deuterogattii. To be noted: for MIC Cryptococcus deuterogattii CBS 7750: Table S1; for MIC: range of MICs, n=8, 35 °C, 36 h, visual, read-out: MIC C. deuterogattii CBS 7750.
Text: as §1, §2, §3, §4
Background: Broth dilution looks for growth in wells or tubes with falling amounts of substance.

Data set [2] concerns C. deuterogattii ATCC 32609. The data set can be described thus: Antifungal MIC assay (broth microdilution in YNB). It counts as cell-based, Cryptococcus deuterogattii. Conditions: for MIC Cryptococcus deuterogattii ATCC 32609: Table S1; for MIC: read-out: MIC C. deuterogattii ATCC 32609.
Text: as §1, §2, §3, §4

Data set [3] has as its system Klebsiella pneumoniae ATCC 700603 (K6; ESBL SHV-18). The class given is cell-based. To be noted: 18 h. The method, then:
(§5) CO-ADD High Throughput Screening
(§6) Bacterial broth microdilution minimum inhibitory concentration (MIC) assay Bacterial strains were cultured in Cation-adjusted Mueller Hinton broth (CAMHB; Bacto Laboratories 212322) at 37 °C overnight. A sample of each culture was then diluted 40-fold in fresh CAMHB and incubated at 37 °C for 1.5-3 h. The resultant mid-log phase cultures were diluted with CAMHB (CFU/mL measured by OD600), then added to each well of the compound-containing plates (384-well non-binding surface (NBS) plates; Corning CLS3640), giving a cell density of 5 × 10^5 CFU/mL and a total volume of 50 µL. Plates were covered and incubated at 37 °C for 18 h without shaking. Inhibition of bacterial growth was determined measuring absorbance at 600 nm (OD600), using media only as negative control and bacteria without inhibitors as positive control. MIC values were determined as the lowest concentration at which the growth was inhibited at ≥ 80%. Colistin sulfate (Sigma C4461) and vancomycin HCl (Sigma 861987) were used as positive inhibitor controls on each plate for Gram-negative and Gram-positive bacteria, respectively.
(§7) Figure S1. 1H NMR (400 MHz) of [Co(ATS)(DMAP)2]NO3 (3) in DMSO-d6.
(§8) (1 picture or pasted object on this page, not shown here)

Another data set has as its system human red blood cells. The data set can be described thus: Haemolysis assay. It counts as cell-based. To be noted: 1 h at 37 °C. As for the experimental part:
Haemolysis assay: Human whole blood (Australian Red Cross Blood Service) was washed three times with three volumes of 0.9 % NaCl and resuspended in a concentration of 0.5×10^8 cells mL^−1, determined by manual cell count in a Neubauer haemocytometer. Washed cells were added to compound containing plates (384‐well round bottom polypropylene plates, Corning 3657) for a final volume of 50 μL, shaken for 10 min and incubated for 1 h at 37 °C, without shaking. After incubation, the plates were centrifuged at 1000 g for 10 min to pellet cells and debris, 25 μL of the supernatant was then transferred to reading plates (384‐well flat bottom polystyrene plates, Corning CLS3680), with haemolysis determined by measuring the supernatant absorbance at […] (OD405), using cells without inhibitors as negative control and cells with 1 % Triton X‐100 (Sigma T8787) as positive control. HC10 and HC50 (concentration at which 10 and 50 % haemolysis is induced, respectively) were calculated by curve fitting the inhibition values vs. log(concentration) of four replicates using a sigmoidal dose–response function with variable fitting values for top, bottom and slope using Prism 8. Melittin (Sigma M2272) was used as positive haemolytic control on each plate. Human ethics approval from the University of Queensland Institutional Human Research Ethics Committee was obtained for use of human blood for haemolysis studies (approval number 201400003).

For data set [4], the system named is Acinetobacter baumannii ATCC 19606. The data set can be described thus: CO-ADD bacterial broth microdilution MIC assay. It counts as cell-based. Conditions: CAMHB, 37 °C, 18 h, ≥ 80% inhibition. The method, then: as §5, §6, §7, §8
Data set [5] has as its system Escherichia coli ATCC 25922. The experiment in a line: CO-ADD bacterial broth microdilution MIC assay. The class given is cell-based. To be noted: CAMHB, 37 °C, 18 h, ≥ 80% inhibition. The method, then: as §5, §6, §7, §8
The subject of data set [6] is Pseudomonas aeruginosa ATCC 27853. The data set can be described thus: CO-ADD bacterial broth microdilution MIC assay. It counts as cell-based. To be noted: CAMHB, 37 °C, 18 h, ≥ 80% inhibition. As for the experimental part: as §5, §6, §7, §8
Data set [7] concerns Staphylococcus aureus ATCC 43300 (MRSA). The data set can be described thus: CO-ADD bacterial broth microdilution MIC assay. Conditions: CAMHB, 37 °C, 18 h, ≥ 80% inhibition. It counts as cell-based. As for the experimental part:
as §5, §6, §7, §8

For another data set, the system named is C. albicans ATCC 90028. The data set can be described thus: Antifungal MIC assay (broth microdilution in YNB). It counts as cell-based, Candida albicans. To be noted: for MIC Candida albicans ATCC 90028: Table S1; for MIC: read-out: MIC C. albicans ATCC 90028.
Text: as §1, §2, §3, §4

The mark [8] stands for this setting: range of MICs, n=8, 35 °C, 36 h, visual.

Several values for one entry are separate records, joined by “and”; a condition that tells them apart may be missing. Equal values may be shown once. Read-outs that look alike come from different tables or passages of the source.

The text below walks through data of PMC7855930, “Nontoxic Cobalt(III) Schiff Base Complexes with Broad‐Spectrum Antifungal Activity” (Chemistry (Weinheim an Der Bergstrasse, Germany), 2020).

For orientation: MIC means the least concentration at which growth counts as inhibited.

`O=[N+]([O-])[O-].O=[N+]([O-])[O-].[Co+2]` [Co, Co(NO3)2, reference compound]: in the data set with C. tropicalis ATCC 750, the “MIC Candida tropicalis ATCC 750” value was over 29.1 µg/mL. Moreover, the MIC (in the data set on C. tropicalis ATCC 750 (setting [8]); in [1]; in [2] (setting [8]); in the data set with C. albicans ATCC 90028 (setting [8])) was over 100 µM in each case. The “MIC Cryptococcus deuterogattii CBS 7750” value in data set [1] is over 29.1 µg/mL. Also, the “MIC Cryptococcus deuterogattii ATCC 32609” value in data set [2] is over 29.1 µg/mL. The “MIC Kp (Klebsiella pneumoniae ATCC 700603)” value (from here on “MIC Kp”) in data set [3] (CAMHB, 37 °C, ≥ 80% inhibition) is on record as over 32 µg/mL. For the same compound, the “Haem HC10 (concentration at which 10 % haemolysis is reached)” value in the data set on human red blood cells was over 100 µM. The “MIC Ab (Acinetobacter baumannii ATCC 19606)” value (shortened to “MIC Ab”) in [4] was over 32 µg/mL. Also, the “MIC Ec (Escherichia coli ATCC 25922)” value in [5] is recorded as over 32 µg/mL. The “MIC Pa (Pseudomonas aeruginosa ATCC 27853)” value (from here on “MIC Pa”) in data set [6] is recorded as over 32 µg/mL. In addition, in [7], the “MIC Sa (Staphylococcus aureus ATCC 43300, MRSA)” value (shortened to “MIC Sa”) is on record as over 32 µg/mL. In the data set with C. albicans ATCC 90028, the “MIC Candida albicans ATCC 90028” value is over 29.1 µg/mL.

Take `CC1=[N+]2N=C(N)[S][Co-3]23([n+]2ccc(N(C)C)cc2)([n+]2ccc(N(C)C)cc2)[S]C(N)=N[N+]3=C1C.O=[N+]([O-])[O-]` [Compound 3, [Co(ATS)(DMAP)2]NO3]: the “MIC Candida tropicalis ATCC 750” value in the data set on C. tropicalis ATCC 750 lay in the range of 0.23 to 0.46 µg/mL. Moreover, the “MIC C. tropicalis ATCC 750” value in the data set on C. tropicalis ATCC 750 (setting [8]) fell in the range of 0.39 to 0.78 µM. Also, in [1], the “MIC Cryptococcus deuterogattii CBS 7750” value was 0.93 µg/mL and the MIC is 1.56 µM. For the same compound, the “MIC Cryptococcus deuterogattii ATCC 32609” value in [2] was in the range of 0.93 to 1.86 µg/mL. The “MIC C. deuterogattii ATCC 32609” value in data set [2] (setting [8]) fell in the range of 1.56 to 3.12 µM. In addition, in [3], the “MIC Kp” value is given as over 32 µg/mL. For the same compound, the “Haem HC10 (concentration at which 10 % haemolysis is reached)” value in the data set with human red blood cells is 73.1 µM and 73.1 ± 20.4 µM. Also, the “MIC Ab” value in [4] is over 32 µg/mL. The “MIC Ec (Escherichia coli ATCC 25922)” value in data set [5] is given as over 32 µg/mL. In addition, in data set [6], the “MIC Pa” value is on record as over 32 µg/mL. In addition, the “MIC Sa” value in data set [7] is listed as over 32 µg/mL. In addition, the “MIC Candida albicans ATCC 90028” value in the data set with C. albicans ATCC 90028 was determined as 0.93 µg/mL. Further, the MIC in the data set with C. albicans ATCC 90028 (setting [8]) turned out to be 1.56 µM.

`O=[N+]([O-])[O-].[NH3+][Co-3]123([NH3+])[O]c4c(F)cccc4C=[N+]1c1ccccc1[N+]2=Cc1cccc(F)c1[O]3` [Compound 7, [Co(3F‐salophen)(NH3)2]NO3]: the “MIC Candida tropicalis ATCC 750” value in the data set with C. tropicalis ATCC 750 was 47.8 µg/mL. For the same compound, the MIC (in the data set with C. tropicalis ATCC 750 (setting [8]); in data set [1]; in [2] (setting [8])) was 100 µM in each case. The “MIC Cryptococcus deuterogattii CBS 7750” value in data set [1] worked out at 47.8 µg/mL. In addition, the “MIC Cryptococcus deuterogattii ATCC 32609” value in [2] was 47.8 µg/mL. Further, in data set [3], the “MIC Kp” value was over 32 µg/mL. For the same compound, in the data set with human red blood cells, the “Haem HC10 (concentration at which 10 % haemolysis is reached)” value was over 100 µM. Also, the “MIC Ab” value in [4] is reported as over 32 µg/mL. The “MIC Ec (Escherichia coli ATCC 25922)” value in data set [5] is given as over 32 µg/mL. The “MIC Pa” value in [6] is reported as over 32 µg/mL. Also, the “MIC Sa” value in data set [7] is recorded as over 32 µg/mL. Besides, the “MIC Candida albicans ATCC 90028” value in the data set with C. albicans ATCC 90028 was in the range of 23.9 to 47.8 µg/mL. For the same compound, the “MIC C. albicans ATCC 90028” value in the data set on C. albicans ATCC 90028 (setting [8]) fell in the range of 50 to 100 µM.
